In patent US20170114049A1, “2,5-DISUBSTITUTED CYCLOPENTANE CARBOXYLIC ACIDS FOR THE TREATMENT OF RESPIRATORY TRACT DISEASES” (BAYER PHARMA AKTIENGESELLSCHAFT, priority 2014, published 2017):
≈ marks a conversion by molar mass, not a printed value.

Experiments:
MMP-1 = biological target: T1, MMP-1 (Homo sapiens, UniProt P03956); assay: In vitro MMP-1 inhibition test; assay type: biochemical
T1 construct: purchased R&D Systems 901-MP
T1 sequence (P03956 100-469): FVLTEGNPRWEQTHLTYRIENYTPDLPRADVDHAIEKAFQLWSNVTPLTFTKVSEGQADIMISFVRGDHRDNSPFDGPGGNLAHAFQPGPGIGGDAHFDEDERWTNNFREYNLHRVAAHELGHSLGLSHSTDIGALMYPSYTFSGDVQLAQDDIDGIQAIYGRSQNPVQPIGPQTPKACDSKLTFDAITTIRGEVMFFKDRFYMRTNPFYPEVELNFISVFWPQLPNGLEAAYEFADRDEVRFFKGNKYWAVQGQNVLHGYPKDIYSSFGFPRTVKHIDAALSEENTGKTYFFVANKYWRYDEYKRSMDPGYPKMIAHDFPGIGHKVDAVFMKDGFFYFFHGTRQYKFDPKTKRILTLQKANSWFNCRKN
Description: (§1) The MMP-mediated amidolytic cleavage of a suitable peptide substrate leads to an increase in fluorescent light here too. The signal intensity of the fluorescent light is directly proportional to the enzyme activity. The active concentration of a test compound at which half the enzyme is inhibited (50% signal intensity of the fluorescent light) is reported as the […].
(§2) Recombinant MMP-1 (from R&D Systems, 901-MP) is chemically activated in accordance with the manufacturer's instructions using APMA. 1 μl of the test compound to be analysed (as a solution in DMSO, suitable concentrations, for example, 1 nM to 30 μM) is pipetted into 24 μl of activated enzyme (final concentration, for example, 2 nM) in reaction buffer (50 mM Tris/HCl pH 7.5, 10 mM CaCl2, 150 mM NaCl, 0.05% Brij®-35) in a white 384-hole microtiter plate (MTP). The enzymatic reaction is started by adding the intramolecularly quenched Mca-Pro-Leu-Gly-Leu-Dpa(Dnp)-Ala-Arg-NH2 substrate (final concentration, for example, 10 μM; R&D Systems, ES-001), so as to result in a total test volume of 50 μl. The course of the MMP-1 reaction is measured by measuring the fluorescence intensity (excitation 320 nm, emission 410 nm) over a suitable period of time (for example over 120 min at a temperature of 32° C.).

MMP-9 = biological target: T2, MMP-9 (Homo sapiens, UniProt P14780); assay: In vitro MMP-9 inhibition test; assay type: biochemical
T2 construct: purchased R&D Systems 911-MP

[1] = biological target: T3, human macrophage elastase (HME/hMMP-12) (Homo sapiens, UniProt P39900); assay: In vitro HME inhibition test in the presence of serum albumin (BSA) in the reaction buffer; assay type: biochemical; settings: presence of serum albumin (BSA) 2% (w/w)
T3 construct: 0.5 nM HME; purchased R&D Systems 917-MP
Description: This test corresponds to the standard HME inhibition test described above, except using a modified reaction buffer. This reaction buffer additionally contains bovine serum albumin (BSA, fatty acid-free, A6003, from Sigma-Aldrich) of final concentration 2% (w/w), which corresponds to about half the physiological serum albumin content.

mouse MMP-9 = biological target: T4, mouse MMP-9 (Mus musculus, UniProt P41245); assay: In vitro mouse MMP-9 inhibition test; assay type: biochemical
T4 construct: purchased R&D Systems 909-MP
Description: as §1
as §2, with “Recombinant mouse MMP-9” for “Recombinant MMP-1”, “Systems, 909-MP)” for “Systems, 901-MP)”, “example, 0.1” for “example, 2”, “example, 5” for “example, 10”, “the MMP-9” for “the MMP-1”

[2] = Determination of solubility in PBS buffer pH 6.5; settings: PBS buffer pH 6.5, 1% DMSO, room temperature; for solubility at 24 h: PBS buffer, pH 6.5, aqueous buffer, kinetic from dmso stock
Description: The test substance is dissolved in DMSO. An aliquot is taken from this solution and introduced into PBS buffer pH 6.5 (DMSO content: 1%). This solution/suspension is agitated at room temperature for 24 h. After ultracentrifugation at 114000 g for 30 min, the supernatant is removed, diluted with acetonitrile/water 8:2 and analysed by LC-MSMS. Quantification is effected by means of a five-point calibration curve of the test compound in DMSO.

rat hepatocytes = assay: Hepatocyte assay for determination of metabolic stability; settings: after incubation with rat hepatocytes
Description: Seven samples from the incubation solution are taken for the LC-MS analysis within a fixed time pattern, in order to determine the half-life (i.e. the degradation) of the particular compound. This half life is used to calculate various “Clearance” parameters (CL) and “Fmax” values (see below).
The CL and Fmax values are a measure of the phase 1 and phase 2 metabolism of the compounds in the hepatocytes. In order to minimize the influence of the organic solvent on the enzymes in the incubation batches, the concentration thereof is generally limited to 1% (acetonitrile) or 0.1% (DMSO).
For all species and breeds, a hepatocyte cell count in the liver of 1.1*10^8 cells/g of liver is expected.
The parameters calculated and the meanings thereof are: • Fmax well-stirred [%] maximum possible bioavailability after oral administration • Calculation: (1-CLblood well-stirred/QH)*100 • CLblood well-stirred [L/(h*kg)] calculated blood clearance (well-stirred model) • Calculation: (QH*CLintrinsic)/(QH+CL′intrinsic) • CL′intrinsic[ml/(min*kg)] maximum ability of the liver (of the hepatocytes) to metabolize a compound (assuming that the liver blood flow is not rate-limiting) • Calculation: CLintrinsic, apparent* species-specific hepatocyte count [1.1* 10^8/g liver]*species-specific liver weight [g/kg] • CL′intrinsic, apparent[ml/(min*mg)] normalizes the elimination constant by dividing it by the hepatocyte cell count x used (x*10^6/ml) • Calculation: kcl[1/min]/(cell count [x*10^6]/incubation volume [ml]) • (QH=species-specific liver blood flow).

T4 sequence (P41245 108-730): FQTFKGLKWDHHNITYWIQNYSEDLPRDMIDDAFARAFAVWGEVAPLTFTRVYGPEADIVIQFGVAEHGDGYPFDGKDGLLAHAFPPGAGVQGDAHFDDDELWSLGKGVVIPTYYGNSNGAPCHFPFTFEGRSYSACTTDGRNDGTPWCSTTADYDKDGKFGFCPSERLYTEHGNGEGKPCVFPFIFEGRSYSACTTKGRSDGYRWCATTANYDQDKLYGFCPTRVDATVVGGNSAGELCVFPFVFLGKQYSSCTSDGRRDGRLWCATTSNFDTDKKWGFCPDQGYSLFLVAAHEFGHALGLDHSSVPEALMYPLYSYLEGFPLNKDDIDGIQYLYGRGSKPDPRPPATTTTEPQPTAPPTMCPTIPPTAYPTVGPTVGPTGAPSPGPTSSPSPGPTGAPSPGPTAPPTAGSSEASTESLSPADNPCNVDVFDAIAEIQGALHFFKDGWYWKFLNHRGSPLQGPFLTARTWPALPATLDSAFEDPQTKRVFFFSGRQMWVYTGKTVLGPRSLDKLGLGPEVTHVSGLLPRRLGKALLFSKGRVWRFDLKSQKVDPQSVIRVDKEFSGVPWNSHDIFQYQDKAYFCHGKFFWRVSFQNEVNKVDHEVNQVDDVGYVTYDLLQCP
T3 sequence (P39900 106-470): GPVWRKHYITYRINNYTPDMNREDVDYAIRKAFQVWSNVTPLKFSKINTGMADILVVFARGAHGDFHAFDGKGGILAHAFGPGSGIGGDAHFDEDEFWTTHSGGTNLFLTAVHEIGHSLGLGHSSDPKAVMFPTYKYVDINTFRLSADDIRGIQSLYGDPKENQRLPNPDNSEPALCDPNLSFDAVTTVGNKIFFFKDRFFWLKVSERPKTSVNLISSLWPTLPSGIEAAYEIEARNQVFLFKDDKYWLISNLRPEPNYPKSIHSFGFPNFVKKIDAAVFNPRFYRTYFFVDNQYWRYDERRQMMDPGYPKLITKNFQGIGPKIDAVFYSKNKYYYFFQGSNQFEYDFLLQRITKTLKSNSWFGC
T2 sequence (P14780 107-707 limits assumed): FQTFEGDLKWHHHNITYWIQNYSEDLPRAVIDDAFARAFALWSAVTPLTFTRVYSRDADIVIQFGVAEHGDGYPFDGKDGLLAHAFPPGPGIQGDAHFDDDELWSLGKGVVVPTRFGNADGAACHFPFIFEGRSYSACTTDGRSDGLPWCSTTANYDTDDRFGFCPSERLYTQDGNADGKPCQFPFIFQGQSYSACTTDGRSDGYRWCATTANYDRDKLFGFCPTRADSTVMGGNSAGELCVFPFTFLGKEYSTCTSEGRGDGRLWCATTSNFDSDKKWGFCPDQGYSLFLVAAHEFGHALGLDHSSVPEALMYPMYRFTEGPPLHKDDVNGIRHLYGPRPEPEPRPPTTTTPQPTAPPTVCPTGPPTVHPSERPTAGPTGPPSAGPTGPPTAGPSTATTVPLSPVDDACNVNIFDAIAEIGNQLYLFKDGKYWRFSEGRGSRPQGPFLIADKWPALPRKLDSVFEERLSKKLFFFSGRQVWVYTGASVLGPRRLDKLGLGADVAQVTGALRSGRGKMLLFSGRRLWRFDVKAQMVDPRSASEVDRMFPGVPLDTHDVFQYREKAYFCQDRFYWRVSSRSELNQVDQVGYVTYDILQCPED

Compound | IC50 (MMP-1) | IC50 (MMP-9) | IC50 [1] | IC50 (mouse MMP-9) | solubility at 24 h [2] | CLblood (calculated blood clearance, well-stirred) (rat hepatocytes) | Fmax (maximum possible bioavailability after oral administration, well-stirred) (rat hepatocytes) | Solubility ([2]; 24 h)
O=C(O)[C@@H]1[C@@H](Cn2nnc3ccc(C(F)(F)F)cc3c2=O)CC[C@H]1C(=O)c1ccc(SCC2CCOCC2)cc1 (single isomer, unassigned) [Example 15, (+)-(1RS,2SR,5RS)-2-{[4-Oxo-6-(trifluoromethyl)-1,2,3-benzotriazin-3(4H)-yl]methyl}-5-{4-[(tetrahydro-2H-pyran-4-ylmethyl)sulphanyl]benzoyl}cyclopentanecarboxylic acid] | 11000 nM | 150 nM | 16 nM |  |  |  |  | 
Cc1ccc2nnn(C[C@H]3CC[C@@H](C(=O)c4ccc(OCCC5CCOCC5)cc4)[C@@H]3C(=O)O)c(=O)c2c1 (single isomer, unassigned) [Example 20, (+)-(1RS,2SR,5RS)-2-[(6-Methyl-4-oxo-1,2,3-benzotriazin-3(4H)-yl)methyl]-5-{4-[2-(tetrahydro-2H-pyran-4-yl)ethoxy]benzoyl}cyclopentanecarboxylic acid] | > 40000 nM | 370 nM | 12.2 nM | 800 nM | 425 µg/mL (≈ 818 µM) |  |  | 
O=C(O)[C@H]1[C@H](Cn2nnc3ccccc3c2=O)CC[C@@H]1C(=O)c1ccc(OCCC2CCOCC2)cc1 (stereo in doubt) [Example 4, (+/−)-(1RS,2SR,5RS)-2-[(4-Oxo-1,2,3-benzotriazin-3(4H)-yl)methyl]-5-{4-[2-(tetrahydro-2H-pyran-4-yl)ethoxy]benzoyl}cyclopentanecarboxylic acid] | > 40000 nM | 5000 nM | 37.3 nM | 1500 nM | 51.4 µg/mL (≈ 102 µM) |  |  | 
O=C(O)[C@H]1[C@H](Cn2nnc3ccccc3c2=O)CC[C@@H]1C(=O)c1ccc(OCC2CCOCC2)cc1 (stereo in doubt) [Example 1, (+/−)-(1RS,2SR,5RS)-2-[(4-Oxo-1,2,3-benzotriazin-3(4H)-yl)methyl]-5-[4-(tetrahydro-2H-pyran-4-ylmethoxy)benzoyl]cyclopentanecarboxylic acid] | 26000 nM | 450 nM | 6.45 nM | 560 nM | 52.2 µg/mL (≈ 106 µM) | 17 mL/min/kg | 75.7% | 
(+)-(1RS,2SR,5RS)-2-{[4-Oxo-6-(trifluoromethyl)-1,2,3-benzotriazin-3(4H)-yl]methyl}-5-[4-(tetra-hydro-2H-pyran-4-ylmethoxy)benzoyl]cyclopentanecarboxylic acid [Example 8] | 1800 nM | 55 nM | 2.45 nM |  |  | 4.83 mL/min/kg | 93.1% | 4.5 µg/mL
O=C(O)[C@H]1[C@H](Cn2nnc3ccc(C(F)(F)F)cc3c2=O)CC[C@@H]1C(=O)c1ccc(OCC2CCOCC2)cc1 (racemic) [Example 7, (+/−)-(1RS,2SR,5RS)-2-{[4-Oxo-6-(trifluoromethyl)-1,2,3-benzotriazin-3(4H)-yl]methyl}-5-[4-(tetrahydro-2H-pyran-4-ylmethoxy)benzoyl]cyclopentanecarboxylic acid] | 6500 nM | 120 nM |  |  |  |  |  | 
O=C(O)[C@@H]1[C@@H](Cn2nnc3ccc(C(F)(F)F)cc3c2=O)CC[C@H]1C(=O)c1ccc(OCCC2CCOCC2)cc1 (single isomer, unassigned) [Example 11, (+)-(1RS,2SR,5RS)-2-{[4-Oxo-6-(trifluoromethyl)-1,2,3-benzotriazin-3(4H)-yl]methyl}-5-{4-[2-(tetrahydro-2H-pyran-4-yl)ethoxy]benzoyl}cyclopentanecarboxylic acid] | 27000 nM | 660 nM | 39.2 nM | 1900 nM | 210 µg/mL (≈ 366 µM) |  |  | 
O=C(O)[C@H]1[C@H](Cn2nnc3ccc(C(F)(F)F)cc3c2=O)CC[C@@H]1C(=O)c1ccc(OCCC2CCOCC2)cc1 (stereo in doubt) [Example 10, (+/−)-(1RS ,2S R,5RS)-2-{[4-Oxo-6-(trifluoromethyl)-1,2,3-benzotriazin-3(4H)-yl]methyl}-5-{4-[2-(tetrahydro-2H-pyran-4-yl)ethoxy]benzoyl}cyclopentanecarboxylic acid] | 8800 nM | 310 nM |  | 930 nM | 33.4 µg/mL (≈ 58.2 µM) |  |  | 
O=C(O)[C@@H]1[C@@H](Cn2nnc3ccccc3c2=O)CC[C@H]1C(=O)c1ccc(OCC2CCOCC2)cc1 (stereo in doubt) [Example 2, (+)-(1RS,2SR,5RS)-2-[(4-Oxo-1,2,3-benzotriazin-3(4H)-yl)methyl]-5-[4-(tetrahydro-2H-pyran-4-ylmethoxy)benzoyl]cyclopentanecarboxylic acid] | 10000 nM | 360 nM | 6.71 nM | 280 nM |  | 7.33 mL/min/kg | 89.5% | 
Cc1ccc2nnn(C[C@@H]3CC[C@H](C(=O)c4ccc(OCCC5CCOCC5)cc4)[C@H]3C(=O)O)c(=O)c2c1 (racemic) [Example 19, (+/−)-(1RS,2SR,5RS)-2-[(6-Methyl-4-oxo-1,2,3-benzotriazin-3(4H)-yl)methyl]-5-{4-[2-(letrahydro-2H-pyran-4-yl)ethoxy]benzoyl}cyclopentanecarboxylic acid] | > 40000 nM | 960 nM | 32 nM | 2200 nM | 17 µg/mL (≈ 32.7 µM) |  |  | 
O=C(O)[C@@H]1[C@@H](Cn2nnc3ccccc3c2=O)CC[C@H]1C(=O)c1ccc(OCCC2CCOCC2)cc1 (single isomer, unassigned) [Example 5, (+)-(1RS,2SR,5RS)-2-[(4-Oxo-1,2,3-benzotriazin-3(4H)-yl)methyl]-5-{4-[2-(tetrahydro-2H-pyran-4-yl)ethoxy]benzoyl}cyclopentanecarboxylic acid] | > 40000 nM | 460 nM | 4.06 nM | 210 nM | 338 µg/mL (≈ 669 µM) |  |  | 
